Experimental data reported in US20090239896A1, “AZAINDOLE COMPOUNDS AND USE THEREOF AS PHOSPHOLIPASE-A2 INHIBITORS” (priority 2005, published 2009).

Tests used:
[1] = tested on: Caco-2 monolayers; test: in-vitro Caco-2 permeability study (Example 6B); format: in vitro ADME, human
Method: The culture medium was refreshed every 48 hours.
Papp=(dQ/dt)X(1/C0)X(1/A)

[2] = pharmokinetic study of ILY-4001, IV and oral (Example 6C); format: in vivo, mice; settings: 30 mg/kg oral
Method: This example evaluated the bioavailability of ILY-4001 [2-(3-(2-amino-2-oxoacetyl)-1-(biphenyl-2-ylmethyl)-2-methyl-1H-indol-4-yloxy)acetic acid], alternatively referred to herein as methyl indoxam. Specifically, a pharmokinetic study was conducted to determine the fraction of unchanged ILY-4001 in systemic circulation following administration.
Bioavailability was calculated as a ratio of AUC-oral/AUC-intravenous (IV). To determine this ratio, a first set of subject animals were given a measured intravenous (IV) dose of ILY-4001, followed by a determination of ILY-4001 levels in the blood at various time points after administration (e.g., 5 minutes through 24 hours). Another second set of animals was similarly dosed using oral administration, with blood levels of ILY-4001 determined at various time points after administration (e.g., 30 minutes through 24 hours). The level of ILY-4001 in systemic circulation were determined by generally accepted methods (for example as described in Evans, G., A Handbook of Bioanalysis and Drug Metabolism. Boca Raton, CRC Press (2004)). Specifically, […]/mass spectrometry/mass spectrometry (LC/MS/MS) analytical methods were used to quantitate plasma concentrations of ILY-4001 after oral and intravenous administration. Pharmacokinetic parameters that were measured include Cmax, AUC, tmax, t1/2, and F (bioavailability). […]

[3] = stability at low pH; format: physicochemical; settings: predicted to survive passage through the stomach
[4] = target: human PLA2 IB enzyme (Homo sapiens, UniProt P04054); settings: pyrene substrate release from vesicles; Singer, Ghomashchi et al. 2002; read-out: IC50 value versus the human PLA2 IB enzyme; cited from earlier work
[5] = tested on: C57BL/6 wild-type mice on high fat/high sucrose diabetogenic diet; test: in-vivo evaluation in mice on high fat/high sucrose diabetogenic diet (Example 5); set-up: species or system mouse; settings: for fasting glucose levels: low dose (25 mg/kg/day)
Method: Briefly, four groups were set up, each having six mice. Three of the groups included six wild-type PLA2 (+/+) mice in each group (eighteen mice total), and one of the groups included six genetically deficient PLA2 (−/−) mice. One of the wild-type groups was used as a wild-type control group, and was not treated with ILY-4001. The other two wild-type groups were treated with ILY-4001—one group at a lower dose (indicated as “L” in Table 1) of 25 mg/kg/day, and the other at a higher dose (indicated as “H” in Table 1) of 90 mg/kg/day. The group comprising the PLA2 (−/−) mice was used as a positive control group.
The experimental protocol used in this study was as follows. The four groups of mice, including wild type and isogenic PLA2 (−/−) C57BL/J mice were acclimated for three days on a low fat/low carbohydrate diet. After the three day acclimation phase, the animals were ? and serum samples taken to establish baseline plasma cholesterol, triglyceride, and glucose levels, along with baseline body weight. The mice in each of the treatment groups were then fed a high fat/high sucrose diabetogenic diet (Research Diets D12331). 1000 g of the high fat/high sucrose D12331 diet was composed of casein (228 g), DL-methionine (2 g), maltodextrin 10 (170 g), sucrose (175 g), soybean oil (25 g), hydrogenated coconut oil (333.5 g), mineral mix S10001 (40 g), sodium bicarbonate (10.5 g), potassium citrate (4 g), vitamin mix V10001 (10 g), and choline bitartrate (2 g). This diet was supplemented with ILY-4001 treatments such that the average daily dose of the compound ingested by a 25 g mouse was: 0 mg/kg/day (wild-type control group and PLA2 (−/−) control group); 25 mg/kg/day (low-dose wild-type treatment group), or 90 mg/kg/day (high-dose wild-type treatment group). The animals were maintained on the high fat/high sucrose diet, with the designated ILY-4001 supplementation, for a period of ten weeks.
Body weight measurements were taken for all animals in all treatment and control groups at the beginning of the treatment period and at 4 weeks and 10 weeks after initiation of the study. (See Example 5A). Blood draws were also taken at the beginning of the treatment period (baseline) and at 4 weeks and 10 weeks after initiation of the study, in order to determine fasting glucose (See Example 5B). Cholesterol and triglyceride levels were determined from blood draws taken at the beginning of the treatment (baseline) and at ten weeks. (See Example 5C).
In the study generally described above in Example 5, body weight measurements were taken for all animals in all treatment and control groups at the beginning of the treatment period and at 4 weeks and 10 weeks after initiation of the study.
In the study generally described above in Example 5, blood draws were taken at the beginning of the treatment period (baseline) and at 4 weeks and 10 weeks after initiation of the study, in order to determine fasting glucose.
In the study generally described above in Example 5, blood draws were taken at the beginning of the treatment period (baseline) and at 10 weeks after initiation of the study, in order to determine cholesterol and triglyceride levels.

[6] = target: mouse PLA2 IB enzyme (Mus musculus, UniProt Q9Z0Y2); settings: pyrene substrate release from vesicles; Singer, Ghomashchi et al. 2002; read-out: IC50 value versus the mouse PLA2 IB enzyme; cited from earlier work
[7] = low and high doses (25 and 90 mg/kg/day), 10 weeks

human PLA2 IB enzyme, sequence (P04054 23-148): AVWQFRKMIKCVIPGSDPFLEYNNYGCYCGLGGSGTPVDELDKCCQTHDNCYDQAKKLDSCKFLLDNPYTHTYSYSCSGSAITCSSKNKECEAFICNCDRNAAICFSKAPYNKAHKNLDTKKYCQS
mouse PLA2 IB enzyme, sequence (Q9Z0Y2 23-146): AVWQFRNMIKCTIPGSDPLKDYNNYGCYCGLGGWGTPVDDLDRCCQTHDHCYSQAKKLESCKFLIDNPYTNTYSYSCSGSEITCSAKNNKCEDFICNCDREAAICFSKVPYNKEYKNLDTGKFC

Molecule	apparent permeability ([1]; Caco-2)	level of non-absorption from the GI tract into systemic circulation [2]	stability at low pH [3]	absorption from the GI lumen ([1]; based on Caco-2 assays and pharmokinetic studies)	IC50 [4]	body weight gain compared to wild-type control group ([5]; 25 mg/kg/d and 90 mg/kg/d in diet, week 4 and week 10)	plasma levels of cholesterol [5, 7]	plasma levels of triglycerides [5, 7]	fasting glucose levels ([5]; week four)	fasting glucose levels ([5]; week ten)	IC50 [6]
Lucifer Yellow	around 2.82×10^−7+/−0.37×10^−7 cm/s	–	–	–	–	–	–	–	–	–	–
Cc1c(C(=O)C(N)=O)c2c(OCC(=O)O)cccc2n1Cc1ccccc1-c1ccccc1 [ILY-4001, 2-(3-(2-amino-2-oxoacetyl)-1-(biphenyl-2-ylmethyl)-2-methyl-1H-indol-4-yloxy)acetic acid]	–	~72%	stable	relatively low	~200 nM	significantly reduced	substantially reduced	substantially reduced	moderately beneficial effect	a beneficial effect was not observed	~150 nM
